Test results as given in patent publication US5539119A, “Indole derivatives” (priority 1990, dated 1996).
Like-named read-outs stand apart in the source and are kept apart here.

Columns and labels:
[1] = system: Guinea Pig Ileal Longitudinal Muscle; test: GPI, shift of the compound's effect by naloxone or nor-BNI; set-up: GPI nor-BN1 Ke: unit not given here
Method: (§1) The test of the compounds of this invention for agonist and antagonist activities was carried out in according to the method proposed by Takemori et al. (Takemori, A, E. et al.: Eur. J. Pharmacal., 1982, 85, 163) using Guinea Pig Ileal Longitudinal Muscle Mouse Vas Deferens (MVD).

[2] = system: Mouse Vas Deferens (MVD); test: Agonist activity in Mouse Vas Deferens (MVD); conditions: read-out: MVD IC50
Method: as §1

[3] = system: Guinea Pig Ileal Longitudinal Muscle; test: Agonist activity in Guinea Pig Ileal Longitudinal Muscle (GPI); conditions: guinea pig ileum
Method: as §1

[4] = target: T1, δ opioid receptor (Cavia porcellus, UniProt A0A286XTF2); test: Bonding (binding) assay, guinea pig brain homogenate, DPDPE (hot) / DADLE (cold)
T1 construct: the homogenate of the brain of a guinea pig; from tissue; host or cells: guinea pig brain homogenate
T1 sequence (A0A286XTF2 1-366): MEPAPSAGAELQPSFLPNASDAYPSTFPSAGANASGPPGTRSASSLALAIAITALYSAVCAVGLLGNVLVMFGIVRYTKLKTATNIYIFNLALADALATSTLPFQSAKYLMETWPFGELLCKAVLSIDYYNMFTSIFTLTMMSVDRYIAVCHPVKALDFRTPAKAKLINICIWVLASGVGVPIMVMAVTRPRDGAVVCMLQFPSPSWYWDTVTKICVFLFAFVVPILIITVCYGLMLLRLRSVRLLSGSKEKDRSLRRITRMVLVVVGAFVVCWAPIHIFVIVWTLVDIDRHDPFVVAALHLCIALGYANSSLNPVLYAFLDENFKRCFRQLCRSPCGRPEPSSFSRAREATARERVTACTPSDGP
Method: (§2) In the test for bonding, the homogenate of the brain of a guinea pig was diluted with Tris buffer in a ratio calculated to give to the produced solution a protein content of 0.7 mg per prot/tube was used as incorporated in the reaction solution. With regard to ligands for binding assay, 3H-DAGO (μ), DPDPE (δ), and EKC (κ) were used for hot samples and naloxone (μ), DADLE (δ), and naloxone (κ) for cold samples.

[5] = target: T2, κ opioid receptor (Cavia porcellus, UniProt P41144); test: Bonding (binding) assay, guinea pig brain homogenate, EKC (hot) / naloxone (cold)
T2 construct: the homogenate of the brain of a guinea pig; from tissue; host or cells: guinea pig brain homogenate
T2 sequence (P41144 whole entry): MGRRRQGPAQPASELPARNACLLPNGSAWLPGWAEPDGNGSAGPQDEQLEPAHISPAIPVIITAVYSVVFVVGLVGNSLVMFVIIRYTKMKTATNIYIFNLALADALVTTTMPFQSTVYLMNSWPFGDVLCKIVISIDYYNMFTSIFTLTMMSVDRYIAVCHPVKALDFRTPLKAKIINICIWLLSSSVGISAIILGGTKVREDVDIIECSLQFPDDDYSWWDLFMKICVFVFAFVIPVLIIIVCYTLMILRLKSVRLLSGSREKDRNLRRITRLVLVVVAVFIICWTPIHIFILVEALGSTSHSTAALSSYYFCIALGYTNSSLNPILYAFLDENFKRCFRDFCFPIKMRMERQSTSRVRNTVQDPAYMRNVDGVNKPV
Method: as §2

[6] = system: δ opioid receptor; test: Bonding (binding) assay, guinea pig brain homogenate, DPDPE (hot) / DADLE (cold); conditions: μ/δ
Method: as §2

[7] = system: mouse T cells; test: Inhibiting proliferation of mouse T cells by Con-A stimulation ([3H]thymidine uptake, spleen cells); format: cell-based
Method: Now, the immunosuppressive activity of the compound 19 which is representative of the compounds of the present invention will be shown. Activity in inhibiting proliferation of mouse T cells by Con-A stimulation
A monocellular suspension was prepared by sterilely removing the spleen from a mouse and passing the spleen through a mesh. This suspension was adjusted to a concentration of 5×10^6 cells/ml and dispensed by the unit of 100 μl in all the individual wells of a 96-well plate. […] Eight hours before completion of the incubation, [^3 H]thymidine was added to the contents of the wells in a fixed ratio of 2 μCi/10 μl/well. Eight hours after this addition, the cells in the wells were collected on filter papers with the aid of a cell harvester. The cells on the filter papers were dried, then combined with a toluene type scintillator, and counted for the radioactivity of the [^3 H] thymidine occluded in the cells by means of a scintillation counter.
The ratio of suppression of T cell proliferation was calculated in accordance with the following formula:
Rate of suppression=(Radioactivity in the absence of compound-Radioactivityafter addition of compound)/(Radioactivity in the absence of compound-Radioactivity in the absence of ConA)

[8] = target: T3, μ opioid receptor (Cavia porcellus, UniProt A0ACM8Q262); test: Bonding (binding) assay, guinea pig brain homogenate, 3H-DAGO (hot) / naloxone (cold); conditions: for Ki: guinea pig brain homogenate; for Ki ratio κ/μ: selectivity ratio
T3 construct: 3H-DAGO (DAMGO) radioligand, cold naloxone
T3 sequence (A0ACM8Q262 1-400): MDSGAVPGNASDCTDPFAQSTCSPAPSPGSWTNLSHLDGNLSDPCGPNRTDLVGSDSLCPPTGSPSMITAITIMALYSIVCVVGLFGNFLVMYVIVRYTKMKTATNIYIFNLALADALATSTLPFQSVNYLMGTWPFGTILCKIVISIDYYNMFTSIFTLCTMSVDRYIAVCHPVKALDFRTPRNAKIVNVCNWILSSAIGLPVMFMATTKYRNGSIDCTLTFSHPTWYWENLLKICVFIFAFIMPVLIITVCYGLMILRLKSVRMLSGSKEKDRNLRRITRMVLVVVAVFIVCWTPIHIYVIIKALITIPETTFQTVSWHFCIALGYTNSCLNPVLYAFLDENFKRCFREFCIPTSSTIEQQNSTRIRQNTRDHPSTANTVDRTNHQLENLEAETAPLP
Method: as §2

[9] = target: T4, δ-receptor (Mus musculus, UniProt P32300); test: Antagonism to DPDPE in Mouse Vas Deferens (MVD)
T4 construct: from tissue; host or cells: mouse vas deferens
T4 sequence (P32300 whole entry): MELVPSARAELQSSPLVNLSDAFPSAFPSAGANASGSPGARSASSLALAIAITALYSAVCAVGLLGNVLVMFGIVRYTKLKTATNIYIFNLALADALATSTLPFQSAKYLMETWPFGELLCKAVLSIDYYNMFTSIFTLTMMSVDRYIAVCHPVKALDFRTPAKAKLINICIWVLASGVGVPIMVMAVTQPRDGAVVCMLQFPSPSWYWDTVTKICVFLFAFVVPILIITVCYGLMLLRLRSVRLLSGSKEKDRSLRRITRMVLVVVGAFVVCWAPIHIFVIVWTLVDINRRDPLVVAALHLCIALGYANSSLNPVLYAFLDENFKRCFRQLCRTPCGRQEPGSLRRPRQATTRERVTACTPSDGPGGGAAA

[10] = guinea pig brain homogenate, read-out: Bonding assay Ki value δ
[11] = Mus musculus, T-cell, ConA-stimulated mouse T cells, read-out: IC50, activity in inhibiting T cell hyperplasia (Table 3)
[12] = MVD Antagonism to DPDPE, pA2, (20 nM)
[13] = MVD Antagonism to DPDPE, pA2, (50 nM)
[14] = MVD Antagonism to DPDPE at 100 nM, pA2, at 100 nM
[15] = Mus musculus, T-cell, 48 h, read-out: Ratio of suppression of T cell proliferation

| Compound | GPI naloxone DR [1] | GPI nor-BN1 DR [1] | GPI nor-BN1 Ke [1] | GPI nor-BN1 pA2 [1] | IC50 [3] [nM] | Ki [5] [nM] | Ki ratio μ/δ [6] | Ki ratio μ/δ ([6]; selectivity ratio) | Ki [4] [nM] | IC50 [7, 11] [µg/mL] | Ki [8] [nM] | Ki ratio κ/μ [8] | MVD Antagonism to DPDPE, DR ([9]; (50 nM)) | Kb [9, 12] [nM] | Kb [9, 13] [nM] | also measured |
| --- | --- | --- | --- | --- | --- | --- | --- | --- | --- | --- | --- | --- | --- | --- | --- | --- |
| CN1CC[C@]2(c3cccc(O)c3)Cc3[nH]c4ccc(Br)cc4c3C[C@H]2C1 (relative stereo) [Compound 10, 2-Methyl-4aα-(3-hydroxyphenyl)-9-bromo-1,2,3,4,4a,5,11,11aβ-octahydro-6H-indolo[2,3-g]isoquinoline] | 0.92 | 1.31 | 64.5 | 7.19 | 14300 |  |  |  |  |  |  |  |  |  |  | IC50 [2]: 21900 nM; Ki [4, 10]: 1390 nM |
| Cn1c2c(c3ccccc31)C[C@H]1CN(CC3CC3)CC[C@]1(c1cccc(O)c1)C2 (relative stereo) [Compound 25, 2-Cyclopropylmethyl-4aα-(3-hydroxyphenyl)-1,2,3,4,4a,5,11,11aβ-octahydro-6-methyl-indolo[2,3-g]isoquinoline] | 0.55 | 0.77 |  |  | 14500 | 144 | 52.0 | 552 | 2.77 | 3 | 1530 | 0.09 |  |  |  |  |
| Oc1cccc([C@]23CCN(CC4CC4)C[C@@H]2Cc2c([nH]c4c(F)cccc24)C3)c1 (relative stereo) [Compound 29, 2-Cyclopropylmethyl-4aα-(3-hydroxyphenyl)-7-fluoro-1,2,3,4,4a,5,11,11aβ-octahydro-6H-indolo[2,3-g]isoquinoline] | 2.50 | 2.06 | 18.9 | 7.72 | 6640 | 370 | 194 | 618 | 1.91 | 0.9 | 1180 | 0.31 | 34.1 | 3.89 | 1.51 | MVD Antagonism to DPDPE, DR ([9]; (20 nM)): 6.22 |
| C=CCN1CC[C@]2(c3cccc(O)c3)Cc3[nH]c4ccccc4c3C[C@H]2C1 (relative stereo) [Compound 31, 2-Allyl-4aα-(3-hydroxyphenyl)-1,2,3,4,4a,5,11,11aβ-octahydro-6H-indolo[2,3-g]isoquinoline] | 0.93 | 0.98 |  |  | 20500 | 2240 | 754 | > 9090 | 2.97 | 2.6 | 27000 | 0.09 |  |  |  | Kb [9, 14]: 12.9 nM; MVD Antagonism to DPDPE at 100 nM, DR ([9]; at 100 nM): 4.84 |
| Oc1cccc([C@]23CCN(CC4CC4)C[C@@H]2Cc2c([nH]c4ccc(F)cc24)C3)c1 (relative stereo) [Compound 37, 2-Cyclopropylmethyl-4aα-(3-hydroxyphenyl)-9-fluoro-1,2,3,4,4a,5,11,11aβ-octahydro-6H-indolo[2,3-g]isoquinoline] | 1.19 | 1.26 |  |  | 10500 | 342 | 49.3 | 223 | 6.94 | 1.9 | 1550 | 0.22 |  |  |  | Kb [9, 14]: 6.31 nM; MVD Antagonism to DPDPE at 100 nM, DR ([9]; at 100 nM): 8.93 |
| Oc1cccc([C@]23CCN(CC4CC4)C[C@@H]2Cc2c([nH]c4c(Cl)cccc24)C3)c1 (relative stereo) [Compound 40, 2-Cyclopropylmethyl-4aα-(3-hydroxyphenyl)-7-chloro-1,2,3,4,4a,5,11,11aβ-octahydro-6H-indolo[2,3-g]isoquinoline] | 2.17 | 2.05 | 19.0 | 7.72 | 11700 | 936 | 113 | 199 | 8.31 | 2.6 | 1650 | 0.57 | 18.5 | 10 | 2.88 | MVD Antagonism to DPDPE, DR ([9]; (20 nM)): 3.02 |
| CN1CC[C@]2(c3cccc(O)c3)Cc3[nH]c4ccccc4c3C[C@@]2(O)C1 (relative stereo) [Compound 54, 2-Methyl-4aα-(3-hydroxyphenyl)-11aβ-hydroxy-1,2,3,4,4a,5,11,11a-octahydro-6H-indolo[2,3-q]isoquinoline] | 1.30 | 3.30 | 8.70 | 8.06 | 5960 | 662 |  |  | 2.75 |  |  |  | 22.4 | 5.75 | 1.7 | IC50 [2]: 10200 nM |
| Oc1cccc([C@]23CCN(CC4CC4)C[C@]2(O)Cc2c([nH]c4ccccc24)C3)c1 (relative stereo) [Compound 56] |  |  |  |  |  | 1550 | 906 | 423 | 1.71 | 14 | 723 | 2.14 |  |  |  |  |
| Oc1cccc([C@]23CCN(CC4CC4)C[C@@H]2Cc2c([nH]c4ccccc24)C3)c1 (single isomer, unassigned) [Compound 47, (+)-2-Cyclopropylmethyl-4aα-(3-hydroxyphenyl)-1,2,3,4,4a,5,11,11aβ-octahydro-6H-indolo[2,3-g]isoquinoline] | 1.06 | 1.29 |  |  | 64500 | 388 |  |  | 0.37 | 3.8 | 1170 |  | 30.5 | 5.75 | 1.7 | MVD Antagonism to DPDPE, DR ([9]; (20 nM)): 4.44 |
| Oc1cccc([C@]23CCN(CC4CC4)C[C@@H]2Cc2c([nH]c4ccccc24)C3)c1 (single isomer, unassigned) [Compound 52, (-)-2-Cyclopropylmethyl-4aα-(3-hydroxyphenyl)-1,2,3,4,4a,5,11,11aβ-octahydro-6H-indolo[2,3-g]isoquinoline] | 1.06 | 1.03 |  |  | 16400 | 2280 |  |  |  |  | 81100 |  |  |  |  | Kb ([9]; at 100 nM): 158 nM; MVD Antagonism to DPDPE at 100 nM, Ke ([9]; at 100 nM): 158; Ki [4, 10]: 135 nM; IC50, activity in inhibiting T cell hyperplasia (Table 3) ([7]; ConA-stimulated mouse T cells): 3.5 µg/mL |
| Oc1ccc2c3c1O[C@H]1c4[nH]c5ccccc5c4C[C@@]4(O)[C@@H](C2)N(CC2CC2)CC[C@]314 [NTI, nartol indole, reference compound] |  |  |  |  |  |  |  | 100 |  |  |  |  |  |  |  | inhibition at 0.1 µg/mL [7, 15]: 0%; inhibition at 0.5 µg/mL [7, 15]: 0%; inhibition at 0.75 µg/mL [7, 15]: 0%; inhibition at 1 µg/mL [7, 15]: 0%; inhibition at 2.5 µg/mL [7, 15]: 0%; inhibition at 5 µg/mL [7, 15]: 15%; inhibition at 7.5 µg/mL [7, 15]: 35%; inhibition at 10 µg/mL [7, 15]: 62%; inhibition at 12.5 µg/mL [7, 15]: 85%; inhibition at 15 µg/mL [7, 15]: 98%; inhibition at 17.5 µg/mL [7, 15]: 100%; inhibition at 20 µg/mL [7, 15]: 100%; IC50 ([7]; Mus musculus, T-cell, read-out: IC50 value, immunosuppression (text to Table 2)): 8.6 µg/mL |
